From patent US20260053847A1, “HYDROGEN-GAS-CONTAINING DRUG FOR CAUSAL TREATMENT OF ALZHEIMER'S DISEASE (DISEASE-MODIFYING DRUG)” (H2 GLOBAL GROUP S.R.O., priority 2022, published 2026)
Read-outs that look alike come from different tables or passages of the source.

Assays:
[1] = tested on: patients with Alzheimer's disease; settings: for changes in ADAS-cog scores versus control group not inhaling hydrogen gas: FIG. 2
Procedure: The ADAS-cog assesses and scores word list equipment, speaking ability, verbal comprehension, speech difficulties in spontaneous speech, completion of commands, object and finger naming, constructional tasks, ideomotor skills, orientation, word recognition, and ability to reproduce test instructions. The range of scores is from 0 to 70, the higher the score, the greater the cognitive impairment (normal→several).
(§1) A mixture of hydrogen gas 3% (v/v) and oxygen gas 21% (v/v) was administered to 8 patients with Alzheimer's disease for 1 hour 2× per day. Inhalation was continued for a period of 6 months, after which hydrogen gas inhalation was discontinued and progress monitored.
(§2) Treatment efficacy was assessed by clinical assessment using ADAS-cog and neural quality (integrity) was assessed by MRI using DTI.
Statistical significance was assessed by Student's t-test, * indicates outputs for p¿ 0.05, ** for p¿ 0.01, indicating significant statistical significance.

[2] = tested on: patients with Alzheimer's disease; settings: for DTI area at FA value of 0.2 (neural quality): FIG. 3; for normalised DTI value FA=0.2/FA=0.1, statistical analysis: Student's t-test
Procedure: (§3) For explanation, we note that MRIs of the brain were performed • at the radiology department of Nishijima Hospital and the results were sent to the doctors via an electronic charting system. Digital tractographic imaging was performed using Neuro3D and GRAPPA technology, with five starting points set at locations where nerve bundles passed through the entire hippocampus. DTI was obtained at fractional anisotropy (FA) values of 0.1 and 0.2. The size of the pathway (tract) was calculated from the number of pixels in the pathway (tract) display, the number of pixels was calculated using Image J software. DTI at a fractional anisotropy (FA) value of 0.1 reflects visualization of the neuron as a whole, DTI reflects at a fractional anisotropy (FA) value of 0.2 • to the neural quality of the height visualisation.
For example, the progression of nerve fibers in the hippocampal region of the temporal lobe of the subject's brain can be monitored using diffusion tensor imaging [DTI] and the area of nerve fibers monitored can be analyzed using the process procedures described below. • i) the process of generating a diffusion tensor imaging [DTI] image extracted from the course of nerve fibers in the hippocampal region of the temporal lobe of the subject's brain; • ii) the process of setting five control inputs at regular intervals so that the nerve fiber pathways extracted by process (i) pass through them; • iii) a process in which the fractional anisotropy (FA) is set to 0.2 and an image of the extracted nerve fibers in the hippocampus region is obtained; • iv) a process in which the area of the nerve fiber path is calculated from the number of pixels in the image obtained during the process iii); • v) the process of detecting the manifestations of dementia or predementia based on the measured values of the area of nerve fiber pathways.
In the method described above, the hippocampal region refers to the hippocampal region and the parahippocampal gyrus region; the extracted images of nerve fibers in the hippocampal region are from the lateral and axial views.
When the fractional anisotropy (FA) value is set to 0.1, the extracted image of nerve fibers in the hippocampus region is obtained, and in the process of calculating the area of nerve fiber pathways from the number of pixels in a given image, the area of nerve pathways at FA 0.2 is divided by the area of nerve pathways at FA 0.1 to calculate the FA ratio (normalization).
as §1, §2
For a more accurate quantitative analysis, normalization was performed for each measurement. Data variability was corrected by dividing the F=0.2 value by the simultaneous F=0.1 value. The number of pixels in the corresponding neuronal bundle pathway at FA=0.2 was normalized (divided) by the number of pixels at FA=0.1, and the mean and standard error were obtained from the normalized values from 4 lateral and axial images from the right and left hemispheres of each patient. Statistical significance was assessed by Student's t-test, * indicates outputs for p¿ 0.05, ** for p¿ 0.01, indicating significant statistical significance of the results.

[3] = tested on: patient with a severe form of Alzheimer's disease with incontinence of stool and urine; settings: one patient
Procedure: (§4) A patient with a severe form of Alzheimer's disease with incontinence of stool and urine was given an inhaled gas mixture containing 3% (v/v) hydrogen gas and 21% (v/v) oxygen gas 2× daily for one hour.
In more detail, the patient was a person who was diagnosed with typical Alzheimer's disease in 2011 and was administered Alzheimer's drugs such as Donepezil, Galantamine, Lithium, etc. The condition was progressively worsening, the ADAS-cog score was 48/70, it was a severe form of Alzheimer's disease.
The patient was unable to recall their date of birth at that time, but was able to walk to the toilet to urinate or defecate on their own. Due to the rapid deterioration of their condition, other treatments were not possible, so hydrogen gas inhalation was started as an adjunctive/complementary therapy on Apr. 19, 2019.

[4] = tested on: patient with a severe form of Alzheimer's disease; settings: one patient
Procedure: as §3, §4
The neural quality was assessed using advanced magnetic resonance imaging technology using the diffusion tensor imaging procedure.

[5] = Phase I clinical trials; cited from earlier work
[6] = tested on: test subjects with the alipoprotein E4 (APOE4) genotype exhibiting mild cognitive impairment (MCI); settings: APOE4 genotype subgroup of randomized clinical trials; Patent Document 1; cited from earlier work

[HH] [hydrogen gas, Molecular hydrogen]
changes in ADAS-cog scores versus control group not inhaling hydrogen gas ([1]; 6 months after cessation of inhalation, control 19 patients from past data): improvement persisted
average change in clinical symptoms assessed by ADAS-cog (cognitive function) ([1]; 8 patients, hydrogen gas 3% (v/v) + oxygen 21% (v/v), 1 hour 2x per day, continuous inhalation for 6 months, FIG. 1): an initial deterioration, but soon showed an improvement in cognitive function
average change in clinical symptoms assessed by ADAS-cog (cognitive impairment) ([1]; 8 patients, six months or one year after cessation of 6-month inhalation, compared to before treatment, FIG. 1): marked improvement in cognitive impairment
statistical significance of effect on ADAS-cog versus control and on normalised DTI ([1]; after hydrogen gas inhalation, FIGS. 2 and 4): statistically significant effect
changes in ADAS-cog scores versus control group not inhaling hydrogen gas ([1]; one year after cessation of treatment, compared to pre-treatment status): the improvement persisted compared to the pre-treatment status
normalised DTI value FA=0.2/FA=0.1 ([2]; 1 year after end of treatment, compared with pre-treatment condition, FIG. 4): beneficial effect, compared with the pre-treatment condition, persisting
DTI area at FA value of 0.2 (neural quality) ([2]; 6 months after cessation of hydrogen gas inhalation): persisted
normalised DTI value FA=0.2/FA=0.1, statistical analysis ([2]; 6 months after the end of treatment, FIG. 4): significant effect persisting
DTI area at FA value of 0.2 (neural quality) ([2]; after 6 months of continuous hydrogen gas inhalation, 9 patients as printed): neural quality was improved
normalised DTI value FA=0.2/FA=0.1, statistical analysis ([2]; after 6 months of inhalation, FIG. 4): significant effect
DTI area at FA value of 0.2 (neural quality) ([2]; one year after the end of inhalation, compared with start of inhalation): able to maintain a favorable result compared with the condition at the start of inhalation
ability to urinate and defecate (incontinence of stool and urine) ([3]; ADAS-cog 48/70, 3% (v/v) hydrogen + 21% (v/v) oxygen 2x daily for one hour, after two years of inhalation): able to urinate and defecate on their own
fecal incontinence, frequency or severity of difficulties ([3]; January 2020, inhalation started Apr. 19, 2019): no improvement in the frequency or severity of difficulties
independent defecation ([3]; since Nov. 18, 2020, inhalation started Apr. 19, 2019): able to go and defecate on their own in almost all cases
DTI display at FA=0.2 (qualitative neural quality) ([4]; FIG. 5D): new nerves have appeared
area of nerve fibers visualized in the DTI at FA=0.2 ([4]; after 2 years of inhalation, FIG. 5): increased
changes in DTI over time (effect of inhalation) ([4]; after 6 months of hydrogen gas inhalation, FIG. 5): the effect did not appear
number of pixels (DTI area) at F=0.1 and F=0.2 ([4]; after two years of inhalation (29 to 53 months), FIG. 6): slight increase in the number of pixels
safety of hydrogen gas inhalation [5]: safety of hydrogen gas inhalation has been confirmed
condition of subjects with mild cognitive impairment [6]: improved the condition
